Square brackets hold non-standard residues; d marks the D form. pGlu = O=C1CC[C@@H](C(=O)O)N1
Tests used:
Spodoptera frugiperda = assay: Lepidoptera artificial diet assay; type: in vivo; details: unformulated peptide 1×10^−4M in artificial diet, L1 larvae, one larva per cell, n=10, 168 hrs; compared to negative control vehicle and DDT (FIG. 4)
Source text: Frontier Lepidoptera Artificial diet was made up by preparing agar at 1% and then mixing it with artificial diet powder. Peptide solution was aliquoted in 10 cells and diet poured straight onto it. The final concentration of the peptide was 1×10^−4M, and each peptide was aliquoted in 10 cells. Once the dict solidified and cooled down, one L1 Spodoptera frugiperda larvae was infested in each cell. The trays were sealed with heat and let larva were allowed to develop for 168 hrs. Finally, pupation and mortality were scored for. Lepidoptera artificial diet assays were performed with SB-P-86, and compared to a negative control vehicle and the insecticide dichlorodiphenyltrichloroethane (DDT).

Plutella xylostella = assay: Leaf dip assay (IRAC method 018, Chinese cabbage); type: in vivo; details: unformulated peptide 2×10^−4 M in 0.5% DMSO, 8% ACN, 0.1% Tween-80 in water, 120 hours; Acetamiprid 0.005% as comparator; conducted by FERA (FIG. 5)
Procedure: Peptides were tested in a leaf dip bioassay using Chinese cabbage on IRAC method 018 against Plutella xylostella. Peptide concentration at 2×10^−4 M in a solution of 0.5% DMSO, 8% ACN, 0.1% Tween-80 in water. Acetamiprid (pesticide) was tested at 0.005%. Vehicle control comprised 0.5% DMSO, 8% ACN, 0.1% Tween-80 in water. Peptide SB-P-86 was tested by a Contract Research Organisation, FERA Science Ltd. The activity of SB-P-86 is shown in FIG. 5; SB-P-86 has good activity whilst being eco-friendly and targeted to specific pests unlike broad spectrum chemical insecticides such as Acetamiprid.

## [Pyr]-LTFTSSWGG-[NH2] ([pGlu]LTFTSSWGG-NH2; SMILES CC(C)C[C@H](NC(=O)[C@@H]1CCC(=O)N1)C(=O)N[C@H](C(=O)N[C@@H](Cc1ccccc1)C(=O)N[C@H](C(=O)N[C@@H](CO)C(=O)N[C@@H](CO)C(=O)N[C@@H](Cc1c[nH]c2ccccc12)C(=O)NCC(=O)NCC(N)=O)[C@@H](C)O)[C@@H](C)O) [SB-P-86, AKH peptide according to the invention]
Spodoptera frugiperda
  activity (pupation and mortality scored): much higher activity
Plutella xylostella
  activity (leaf dip bioassay): good activity

— US12642274B2, “Insect neuropeptides 8” (Solasta Bio Limited, priority 2023, dated 2026)
